For assay [1], the system named is IL-6 in A549 cells stimulated with IL-1β. The assay is described as follows: A549 Cell Assay to Measure Inflammation Markers (inhibition of IL-1β-induced IL-6). The assay is classed as cell-based. Conditions: intrinsic activity, Emax class ranges; for Emax: Homo sapiens, A549, A549 Cell Assay to Measure Inflammation Markers; for A549 Emax: A549 Cell Assay to Measure Inflammation Markers. On the procedure: A549 Cell Assay to Measure Inflammation Markers
Further dilution (1:250) of compound was made into assay medium and 50 μL/well diluted drug or DMSO/media control was applied to cells. After a 1 h pre-incubation in a temperature, CO2, and humidity controlled incubator, set to 37° C., 50 μL/well of 4 ng/mL IL-1β diluted in assay media, was applied to cultures. Assay plates, with a final volume of 200 μL/well and final concentrations of 0.1% DMSO and 1 ng/mL IL-1β were returned to incubator for a […] incubation period. Next, plates were spun at 183 g (1000 rpm in Beckman/Coulter Allegra 6KR centrifuge) for 10 min. Cell-free supernatant (150 μL/well) was collected and IL-6 was measured by MSD kit, following protocol of manufacturer, and using MSD SECTOR Imager 6000 instrument. […] Results were represented as IC50 and Emax values.

In assay [2] the target is T1, Glucocorticoid Receptor (GR) (Homo sapiens, UniProt P04150).
T1 construct: purchased Invitrogen P2893
T1 sequence (P04150 1-777): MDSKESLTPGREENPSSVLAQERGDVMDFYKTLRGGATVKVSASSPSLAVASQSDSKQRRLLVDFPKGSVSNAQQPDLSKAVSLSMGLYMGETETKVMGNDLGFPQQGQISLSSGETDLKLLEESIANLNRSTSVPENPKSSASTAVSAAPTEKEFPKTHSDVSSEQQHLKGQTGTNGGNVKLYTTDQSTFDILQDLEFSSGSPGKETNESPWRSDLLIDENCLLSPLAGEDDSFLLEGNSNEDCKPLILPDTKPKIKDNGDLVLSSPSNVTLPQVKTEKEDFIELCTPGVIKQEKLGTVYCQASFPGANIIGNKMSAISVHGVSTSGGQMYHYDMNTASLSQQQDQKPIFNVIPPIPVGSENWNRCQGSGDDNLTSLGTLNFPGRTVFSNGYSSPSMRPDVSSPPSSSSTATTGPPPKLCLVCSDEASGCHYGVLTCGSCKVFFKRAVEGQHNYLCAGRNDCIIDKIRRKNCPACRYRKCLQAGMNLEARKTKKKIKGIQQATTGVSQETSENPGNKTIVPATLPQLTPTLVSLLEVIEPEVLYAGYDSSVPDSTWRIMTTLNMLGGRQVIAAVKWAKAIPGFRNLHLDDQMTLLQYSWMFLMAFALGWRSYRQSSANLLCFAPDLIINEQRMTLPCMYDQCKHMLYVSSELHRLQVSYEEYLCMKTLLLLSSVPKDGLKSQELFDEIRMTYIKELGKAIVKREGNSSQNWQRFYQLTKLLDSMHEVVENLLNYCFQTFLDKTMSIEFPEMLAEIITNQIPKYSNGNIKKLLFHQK
The experiment in a line: GR Fluorescence Polarization Assay (PolarScreen Glucocorticoid Receptor Competitor Assay, Red). As to conditions: IC50 class ranges, read-out: GR binding. How it is done:
GR Fluorescence Polarization Assay
Fluorescence polarization assays were carried out using the PolarScreen™ Glucocorticoid Receptor Competitor Assay, Red from Invitrogen (P2893). The assay buffer was prepared according to the manufacturer's protocol and used to dilute the fluorescent glucocorticoid and GR. Compounds were prepared and serial diluted 1:4 in DMSO. Compound, fluorescent glucocorticoid and GR were added in a final volume of 20 μL and incubated overnight at 4° C. Fluorescent polarization was measured on the PerkinElmer Envision®.

The structures appear in SMILES notation.

As usually defined, the Emax is the size of the effect at its maximum, as opposed to the concentration needed.

On to `Cn1nc(-c2nccs2)c2c1NCCSC2c1ccc(Cl)cc1Cl` (stereo not shown) [D.16], for which, in assay [1], the Emax is less than 50%. Besides, in assay [2], the IC50 was less than 100 nM.
Consider `Cn1nc(-c2ccc(Cl)cc2)c2c1NCCSC2c1ccc(Cl)cc1Cl` (stereo not shown) [D.82], for which the maximal response (Emax) in assay [1] was less than 50%. In assay [2], the IC50 fell in the range of 100 to 1000 nM.
In assay [1], `Cc1cc(C#N)ccc1C1SCCNc2c1c(-c1ccccn1)nn2C` (single isomer, unassigned) [M.20, 3-methyl-4-(1-methyl-3-(pyridin-2-yl)-4,6,7,8-tetrahydro-1H-pyrazolo[3,4-e][1,4]thiazepin-4-yl)benzonitrile] registered an Emax greater than 70%. Also, the IC50 in assay [2] is less than 100 nM.
Take `CCn1nc(-c2ccccn2)c2c1NCCSC2c1ccc(C(=O)Nc2nnc(C)s2)cc1C` (stereo not shown) [S.4]: the maximal response (Emax) in assay [1] was less than 50%. Besides, the IC50 in assay [2] was less than 100 nM.
The like results for `Cn1nc(C2CC2)c2c1NCC(C)(C)SC2c1ccc(Cl)cc1F` (stereo not shown) [D.53] were, in that order, less than 50% and less than 100 nM.
The like results for `CC1CSC(c2ccc(Br)cc2C(F)(F)F)c2c(-c3ccccn3)nn(C)c2N1` (stereo not shown) [K.11] were, in that order, less than 50% and less than 100 nM.
`Cn1nc(-c2ccccn2)c2c1NCCSC2c1ccccc1Cl` (stereo not shown) had a maximal effect (Emax) in assay [1] of less than 50%. For the same compound, the IC50 in assay [2] is less than 100 nM.
In assay [1], `COc1ccc(C)c(C2SC(C)(C)CNc3c2c(C2CC2)nn3C)c1` (stereo not shown) [D.106] had a maximal response (Emax) of less than 50%. Further, the IC50 in assay [2] is less than 100 nM.
For the compound `Cc1ncccc1NC(=O)c1ccc([C@H]2SCCNc3c2c(-c2ccccn2)nn3C)c(Cl)c1`, the “A549 Emax” value in assay [1] is given as “A (a compound with Emax>70%)”. The IC50 in assay [2] is less than 100 nM.
Take `Cc1nn(C)c2c1C(c1ccc(Cl)cc1Cl)SC1(CCCC1)CN2` (stereo not shown) [D.65]: in assay [1], the Emax was less than 50%. Moreover, in assay [2], the IC50 was less than 100 nM.
In assay [1], `Cc1nn(C)c2c1C(c1ccc(Cl)cc1Cl)SC(C)(C)CN2C` (stereo not shown) returned a maximum response (Emax) of less than 50%. The IC50 in assay [2] was 100 to 1000 nM.
As for `CCn1nc(-c2ccncn2)c2c1NCCSC2c1ccc(Br)cc1C` (stereo not shown) [D.108], the Emax in assay [1] is greater than 50%. Moreover, in assay [2], the IC50 was less than 100 nM.
`Cn1nc(-c2ccccc2)c2c1NCCSC2c1ccc(Cl)cc1Cl` (stereo not shown) [D.83]: the maximal response (Emax) in assay [1] is less than 50%. In addition, in assay [2], the IC50 is less than 100 nM.
In turn, `CCn1nc(-c2ccccn2)c2c1NCCCC2c1ccc(Br)cc1` (stereo not shown) gave an Emax in assay [1] greater than 70%. Also, the IC50 in assay [2] was less than 100 nM.
As to `Cc1cc(Cl)ccc1C1SC(C)(C)CNc2c1c(C)nn2C` (stereo not shown) [D.57], in assay [1], the Emax was greater than 50%. Moreover, the IC50 in assay [2] was less than 100 nM.
`Cn1nc(-c2ccccn2)c2c1NCCSC2c1ccc(Cl)cc1Cl` (stereo not shown) [D.8, 4-(2,4-dichlorophenyl)-1-methyl-3-(2-pyridyl)-4,6,7,8-tetrahydropyrazolo[3,4-e][1,4]thiazepine] yielded a maximal effect (Emax) in assay [1] of less than 50%. Moreover, the IC50 in assay [2] was less than 100 nM.
In turn, `Cc1cc(Cl)ccc1[C@@H]1S[C@H](CCO)CNc2c1c(-c1ccccn1)nn2C` (single isomer, unassigned) [M.12, 2-(4-(4-chloro-2-methylphenyl)-1-methyl-3-(pyridin-2-yl)-4,6,7,8-tetrahydro-1H-pyrazolo[3,4-e][1,4]thiazepin-6-yl)ethanol] gave an Emax in assay [1] of less than 50%. Besides, the IC50 in assay [2] was 100 to 1000 nM.
For the compound `Cc1cc(Cl)ccc1C1SCCNc2c1c(-c1ccccn1)nn2C` (stereo not shown) [D.1, 4-(4-chloro-2-methyl-phenyl)-1-methyl-3-(2-pyridyl)-4,6,7,8-tetrahydro-pyrazolo[3,4-e][1,4]thiazepine], the Emax in assay [1] was greater than 60%. Besides, in assay [2], the IC50 is less than 100 nM.
For the compound `Cn1nc(-c2ccccn2)c2c1NCCSC2c1ccc(Cl)cc1` (stereo not shown) [D.23], in assay [1], the maximal effect (Emax) is less than 50%. Further, the IC50 in assay [2] lay in the range of 100 to 1000 nM.
In assay [1], `CCn1nc(-c2ccccn2)c2c1NCCSC2c1ccc(C(=O)Nc2cccnc2C)cc1C` (single isomer, unassigned) [M.62, 4-(1-ethyl-3-(pyridin-2-yl)-4,6,7,8-tetrahydro-1H-pyrazolo[3,4-e][1,4]thiazepin-4-yl)-3-methyl-N-(2-methylpyridin-3-yl)benzamide] displayed an Emax greater than 70%. The IC50 in assay [2] was less than 100 nM.
On to `CCn1nc(-c2ccccn2)c2c1NCCCC2c1ccc(Br)cc1C` (stereo not shown) [BB.1, 4-(4-bromo-2-methylphenyl)-1-ethyl-3-(pyridin-2-yl)-1,4,5,6,7,8-hexahydropyrazolo[3,4-b]azepine], for which the Emax in assay [1] was greater than 70%. The IC50 in assay [2] is less than 100 nM.
On to `Cn1nc(C2CC2)c2c1NCC(C)(C)SC2c1ccc(Cl)cc1Cl` (stereo not shown) [D.74], for which the Emax in assay [1] is less than 50%. Further, the IC50 in assay [2] is less than 100 nM.
The like results for `COC(=O)c1ccc(C2SCC(C)Nc3c2c(-c2ccccn2)nn3C)c(C)c1` (stereo not shown) [E.7] were, in that order, greater than 50% and less than 100 nM.
Consider `Cc1cc(Cl)ccc1[C@@H]1S[C@@H](CCO)CNc2c1c(C)nn2C` (single isomer, unassigned) [M.16, 2-[4-(4-chloro-2-methyl-phenyl)-1,3-dimethyl-4,6,7,8-tetrahydro-1H-pyrazolo[3,4-e][1,4]thiazepin-6-yl]-ethanol], for which the maximum response (Emax) in assay [1] is less than 50%. For the same compound, the IC50 in assay [2] was 1000 to 10000 nM.
With `Cn1nc(-c2ccccn2)c2c1NCCSC2c1ccc(Cl)cc1C(F)(F)F` (stereo not shown) [D.3], in assay [1], the maximal effect (Emax) was less than 50%. Moreover, in assay [2], the IC50 was less than 100 nM.
The like results for `Cc1cc(C(=O)Nc2cccnc2)ccc1C1SC(C)(C)CNc2c1c(C)nn2C` (stereo not shown) [H.1, 3-methyl-N-(3-pyridyl)-4-(1,3,6,6-tetramethyl-7,8-dihydro-4H-pyrazolo[3,4-e][1,4]thiazepin-4-yl)benzamide] were, in that order, less than 50% and 1000 to 10000 nM.
In assay [1], `Cc1cc(-c2nn(C)c3c2C(c2ccc(Cl)cc2C)SCCN3)no1` (stereo not shown) [D.43] displayed a maximal response (Emax) of less than 50%. Also, the IC50 in assay [2] was less than 100 nM.
`Cc1nn(C)c2c1C(c1ccc(Cl)cc1Cl)S(=O)(=O)C(C)(C)CN2` (stereo not shown) [L.4] returned an Emax in assay [1] of less than 50%. In addition, the IC50 in assay [2] is 1000 to 10000 nM.
`CCn1nc(-c2ccccn2)c2c1N[C@H](C)CS[C@H]2c1ccc(CCCO)cc1C` (single isomer, unassigned) [M.35, 3-(4-(1-ethyl-7-methyl-3-(pyridin-2-yl)-4,6,7,8-tetrahydro-1H-pyrazolo[3,4-e][1,4]thiazepin-4-yl)-3-methylphenyl)propan-1-ol] showed a maximal effect (Emax) in assay [1] greater than 70%. In assay [2], the IC50 is less than 100 nM.
On to `Cc1cc(Cl)ccc1[C@H]1S[C@@H](CCO)CNc2c1c(-c1ccccn1)nn2C` (single isomer, unassigned) [M.10, 2-(4-(4-chloro-2-methylphenyl)-1-methyl-3-(pyridin-2-yl)-4,6,7,8-tetrahydro-1H-pyrazolo[3,4-e][1,4]thiazepin-6-yl)ethanol], for which the maximum response (Emax) in assay [1] is less than 50%. Further, the IC50 in assay [2] lay in the range of 1000 to 10000 nM.
`Cc1nn(C)c2c1C(c1ccc3[nH]ncc3c1)SCCN2` (stereo not shown) [D.76]: the maximal response (Emax) in assay [1] was less than 50%. For the same compound, the IC50 in assay [2] was greater than 10000 nM.
The matching figures for `Cc1cc(Cl)ccc1[C@H]1SC(C)(C)CNc2c1c(C)nn2C` (single isomer, unassigned) [M.6]: less than 50% and less than 100 nM.
Compound `Cc1ccc(Br)cc1C1SC(C)(C)CNc2c1c(C1CC1)nn2C` (stereo not shown) [D.55, 4-(5-bromo-2-methyl-phenyl)-3-cyclopropyl-1,6,6-trimethyl-7,8-dihydro-4H-pyrazolo[3,4-e][1,4]thiazepine] displayed a maximum response (Emax) in assay [1] of less than 50%. The IC50 in assay [2] is less than 100 nM.
Turning to `Cn1nc(-c2ccccn2)c2c1NCC[S+]([O-])C2c1ccc(Cl)cc1Cl` (stereo not shown) [L.2], in assay [1], the Emax was less than 50%. For the same compound, in assay [2], the IC50 lay within 1000 to 10000 nM.
Regarding `Cc1cc(Cl)ccc1C1SCC(C)Nc2c1c(-c1ccccn1)nn2C` (single isomer, unassigned) [(4S,7S)-4-(4-chloro-2-methylphenyl)-1,7-dimethyl-3-(pyridin-], the “A549 Emax” value in assay [1] was “D (a compound with Emax<50%)”.
Consider `Cc1cc(Cl)ccc1C1SCCNc2c1c(-c1ccccn1)nn2C` (single isomer, unassigned) [(4S)-4-(4-chloro-2-methyl-phenyl)-1-methyl-3-(2-pyridyl)-4,6], for which the “A549 Emax” value in assay [1] is “B (a compound with Emax>60%)”.

These data come from patent US9150592B2, “Heterocyclic nuclear hormone receptor modulators” (AbbVie Inc., priority 2012, dated 2015).
